The values below come from patent US6106805A, “Diagnostic composition containing an LH-RH antagonist for hysteroscopy” (Asta Medica Aktiengesellschaft, priority 1996, dated 2000).

For data set [1] the following is noted: comparison with existing therapies; cited from earlier work.
Another data set deals with myoma. Nature of the data set: Hysteroscopic and laparoscopic myoma resection after cetrorelix therapy. Format: in vivo, human. The settings on record: 2 months after beginning the cetrorelix therapy. How it is done: Treatment of a patient with uterine fibrosis, which was operated on. Injection of 60 mg of cetrorelix on days 2 and 28 of the menstrual cycle.
A further data set relates to E2. As to the kind of experiment: Clinical experiment: E2 level during cetrorelix pamoate treatment. Format: in vivo, human. On the procedure:
(§1) Injection of 60 mg of cetrorelix on days 2 and 28 of the menstrual cycle.

A further data set has as its system endometrium. As to the kind of experiment: Clinical experiment: endometrium measured by ultrasonics during cetrorelix pamoate treatment. Format: in vivo, human. On the procedure:
as §1

Data set [2] is described as follows: Tolerability of premedication, comparison with existing therapies. Format: in vivo, human. The settings on record: short treatment period of from 7 to 10 days.
Setting [3] is: Day 14 after 1st injection 60 mg.
Where [4] appears, read: Day 21 after 1st injection 60 mg.
[5] abbreviates: Day 28, day of 2nd injection 60 mg.

Each structure is given as a SMILES string. Non-standard residues stand in square brackets, D forms with d. Residues, ends and D or L forms follow the SMILES beside them. dPhe(4-Cl) = N[C@H](Cc1ccc(Cl)cc1)C(=O)O; d2Nal = N[C@H](Cc1ccc2ccccc2c1)C(=O)O; dCit = NC(=O)NCCC[C@@H](N)C(=O)O; d3Pal = N[C@H](Cc1cccnc1)C(=O)O A value given as a limit tells only on which side of the number the result lay.

Regarding `C#C[C@]1(O)CC[C@H]2[C@@H]3CCC4=Cc5oncc5C[C@]4(C)[C@H]3CC[C@@]21C` [Danazol], the “side effects / drawbacks of existing therapies” value in data set [1] was “acne, hirsutism and increase in weight”.

`CC(=O)N[C@H](Cc1ccc2ccccc2c1)C(=O)N[C@H](Cc1ccc(Cl)cc1)C(=O)N[C@H](Cc1cccnc1)C(=O)N[C@@H](CO)C(=O)N[C@@H](Cc1ccc(O)cc1)C(=O)N[C@H](CCCNC(N)=O)C(=O)N[C@@H](CC(C)C)C(=O)N[C@@H](CCCNC(=N)N)C(=O)N1CCC[C@H]1C(=O)N[C@H](C)C(N)=O` [cetrorelix pamoate] (Ac-[d2Nal][dPhe(4-Cl)][d3Pal]SY[dCit]LRP[dA]-NH2): in the data set on myoma, the “blood loss at hysteroscopic and laparoscopic myoma resection” value is listed as “without any significant blood loss”. For the same molecule, the E2 was 25 pg/mL with E2 (Day 0, day of 1st injection 60 mg (baseline)); below 5 pg/mL in the data set on E2 (Day 7 after 1st injection 60 mg); 17 pg/mL in the data set on E2 (setting [3]); 40 pg/mL with E2 (setting [4]); 88 pg/mL in the data set on E2 (setting [5]); 25 pg/mL in the data set with E2 (Day 42, after 2 injections of 60 mg). Further, the E2 in the data set on E2 (Day 55, end of the study) is 73 pg/mL; in the data set on E2 (Day of operation (07.05.96)), 114 pg/mL. Besides, the “endometrial growth during the treatment” value in the data set with endometrium (60 mg on days 2 and 28 of the menstrual cycle, measured by ultrasonics) is reported as “did not exhibit any growth”. In addition, the Endometrium in the data set with endometrium (Day 7 after 1st injection 60 mg, patient with uterine fibrosis) is recorded as 2 mm; in the data set with endometrium (setting [3]), “flat/even”; in the data set with endometrium (setting [4]) it was 3.1 mm; in the data set with endometrium (setting [5]), “flat/even”; in the data set on endometrium (Day 42, after 2 injections of 60 mg (Day 0, Day 28)), “flat/even”; in the data set on endometrium (Day 55, end of the study, after 2 injections of 60 mg) it was “flat/even”. In addition, the “onset of decrease of the thickness of the endometrial layer” value with endometrium (after injecting) was “begins to decrease immediately”. In addition, in data set [2], the side effects result was “no side effects”.
